Reference: US9115367B2, “Stomata-increasing agent, polypeptide, method for increasing number and/or density of stomata in plant, and method for increasing yield of plant” (KYOTO UNIVERSITY, priority 2009, dated 2015)
Where no end group is shown, it is not given here.

What was measured:
[1] = tested on: Arabidopsis thaliana {Lti6b-GFP line}; assay: Administration of purified recombinant stomagen to germinated seedlings (Example 4); assay type: in vivo
Protocol: Seeds of Arabidopsis thaliana {Lti6b-GFP line} were maintained in a B5 sterilized medium {manufactured by NIHON PHARMACEUTICAL CO., LTD, catalogue number: 399-00621} for germination. To the Lti6b-GFP line at 2 days after germination was administered the purified recombinant stomagen obtained in Example 2, so as to have a concentration of 2 μM. Thereafter, the Lti6b-GFP line was grown for 3 days at 22° C. The abaxial epidermis of the cotyledons was observed under a confocal microscope. The same operation was carried out as described above, using as a control an Lti6b-GFP line to which stomagen was not administered. The abaxial epidermis of the cotyledons was observed. A confocal microscopic image of abaxial epidermis of the cotyledon of the Lti6b-GFP-expressing line to which the purified recombinant stomagen was not administered in Example 4 is shown in FIG. 26 (a) and a confocal microscopic image of abaxial epidermis of the cotyledon of the Lti6b-GFP-expressing line to which the purified recombinant stomagen (2 μM) was administered in Example 4 is shown in FIG. 26 (b). In the figures, a scale bar represents 50 μm.

spch mutant = assay: Administration of purified recombinant stomagen to spch mutant (Test Example 9); assay type: in vivo, Arabidopsis thaliana; settings: 2 μM administered to spch mutant at 2 days after germination, grown 3 days; abaxial epidermis of cotyledon
Protocol: The seeds of the spch mutant or the seeds of Arabidopsis thaliana Col-0 line (stock number: CS60000) {wild-type strain} were maintained in a B5 sterilized medium for germination. To the spch mutant or the wild-type strain at 2 days after germination was administered the purified recombinant stomagen obtained in Example 2, so as to have a concentration of 2 μM. Thereafter, the spch mutant or the wild-type strain was grown at 22° C. for 3 days. The abaxial epidermis of the cotyledon was observed under a confocal microscope {manufactured by Zeiss, trade name: LSM510 META microscope}. The abaxial epidermis of the cotyledons was observed by carrying out the same operation was carried out as described above with the use of a spch mutant line to which stomagen was not administered as a control. A confocal microscopic image of abaxial epidermis of the cotyledon of the spch mutant to which purified recombinant stomagen was not administered in Test Example 9 is shown in FIG. 28 (a), a confocal microscopic image of abaxial epidermis of the cotyledon of the spch mutant to which purified recombinant stomagen (2 μM) was administered in Test Example 9 is shown in FIG. 28 (b), and a confocal microscopic image of abaxial epidermis of the cotyledon of the wild-type strain to which purified recombinant stomagen (2 μM) was administered in Test Example 9 is shown in FIG. 28 (c).

soybean (Kariyutaka) = assay: Addition of synthetic stomagen to soybean shoot apex (Example 8); assay type: in vivo; settings: 1 μM, 10 μM or 100 μM added to shoot apex at second leaf stage, grown for a week
Protocol: The seeds of soybean (Kariyutaka) were seeded to a pot containing potting compost, germinated and then grown until the second leaf stage. Then, the synthetic stomagen obtained in Example 5 was added to the shoot apex, so as to have a concentration of 1 μM, 10 μM or 100 μM. Thereafter, the resulting plant was grown for a week and observed under a differential interference microscope {manufactured by Zeiss, trade name: Axioskop plus microscope}, to determine the number of stomata in a square area of 0.22 mm^2. Then, stomatal density was calculated. Here, statistical analysis was conducted using R statistical analysis software. […] In the figure, an open triangle, an open square and an open circle each show a different plant.

[2] = tested on: Arabidopsis thaliana Col-0 line; assay: Heat and lyophilization treatment of stomagen, then stomatal density test (Test Example 16); assay type: in vivo; settings: 60° C. for 5 minutes, 90° C. for 5 minutes or lyophilized; administered at 3 μM, cotyledon
Protocol: The chemically synthesized stomagen obtained in Example 5 was incubated at 60° C. for 5 minutes (sample number 3) or at 90° C. for 5 minutes (sample number 4). In addition, the chemically synthesized stomagen obtained in Example 5 was lyophilized (sample number 5).
The seeds of Arabidopsis thaliana Col-0 line (stock number: CS60000) were maintained and germinated in a B5 sterilized medium. To the Arabidopsis thaliana Col-0 line (stock number: CS60000) at 2 days after germination was administered the untreated stomagen (sample number 2), the stomagen incubated at 60° C. for 5 minutes (sample number 3), the stomagen incubated at 90° C. for 5 minutes (sample number 4), or the lyophilized stomagen (sample number 5), so as to have a concentration of 3 μM.
Thereafter, the Arabidopsis thaliana Col-0 line (stock number: CS60000) was grown at 22° C. for 3 days. Next, the cotyledon was collected, and the surface of the cotyledon was observed under a confocal microscope {manufactured by Zeiss, trade name: LSM510 META microscope}, to determine the number of stomata in a square area of 0.22 mm^2. Then, stomatal density was calculated. […] Stomatal density was calculated by carrying out the same operation as described above with the use of Arabidopsis thaliana Col-0 line (stock number: CS60000) to which stomagen was not administered as a control (sample number 1). […]

[3] = tested on: Arabidopsis thaliana {Lti6b-GFP line}; assay: Administration of synthetic stomagen to germinated seedlings (Example 6); assay type: in vivo
Protocol: The seeds of Arabidopsis thaliana {Lti6b-GFP line} were maintained in a B5 sterilized medium for germination. To the Lti6b-GFP line at 2 days after germination was administered the synthetic stomagen obtained in Example 5, so as to have a concentration of 300 nM. Thereafter, the Lti6b-GFP line was grown for 3 days at 22° C. Next, the cotyledon was collected. The surface was observed under a confocal microscope {manufactured by Zeiss, trade name: LSM510 META microscope}, to determine the number of stomata in a square area of 0.22 mm^2. Then, stomatal density was calculated. Here, statistical analysis was conducted by using R statistical analysis software. In addition, stomatal density was calculated by carrying out the same operation as described above with the use of an Lti6b-GFP line to which stomagen was not administered as a control. The result of examining the relationship between the amount of synthesized stomagen and stomatal density in Example 6 is shown in FIG. 27.

[4] = tested on: rice {strain “Nipponbare”}; assay: Administration of synthetic stomagen to rice seeds (Test Example 14); assay type: in vivo; settings: 200 μL of 80 μM stomagen added to 5 mL water at seeding; abaxial epidermis of second leaf at 32 days after seeding; vs not administered
Protocol: The seeds of rice {strain “Nipponbare”} were seeded to a container {50-mL volume, manufactured by greiner} with 5 mL of desalted water, and thereafter 200 μL of 80 μM stomagen (the synthetic stomagen obtained in Example 5) was added thereto. Then, the seeds were maintained at 22° C. for 8 days. Thereafter, the resulting plant was grown at 22° C. in a B5 sterilized medium. The second leaves of rice at 32 days after seeding were collected. Then, the second leaves were fixed and made transparent, and then stomata were stained by carrying out the same operation as in Test Example 1. Thereafter, the abaxial epidermis of the second leaves was observed under a differential interference microscope {manufactured by Zeiss, trade name: Axioskop plus microscope}. The abaxial epidermis of the second leaves of the rice at 32 days after seeding was observed by carrying out the same procedure as in the above with the use of a rice to which stomagen was not administered as a control. A differential interference image of abaxial epidermis of the second leaf of the rice to which synthesized stomagen was administered in Test Example 14 is shown in FIG. 39 (a) and a differential interference image of abaxial epidermis of the second leaf of the rice to which synthesized stomagen was not administered in Test Example 14 is shown in FIG. 39 (b). In the figures, a framed part represents a stoma. […]

[5] = 2 μM at 2 days after germination, grown 3 days at 22° C., abaxial epidermis of cotyledon, vs not administered

For “purified recombinant stomagen: stomagen expressed in tobacco-cultured BY-2 cells and purified from culture supernatant by reversed-phase HPLC (IGSTAPTCTYNECRGCRYKCRAEQVPVEGNDPINSAYHYRCVCHR; Stomagen; UniProt Q9SV72 58-102, looked up)”, the number of stomata [1, 5] was “increased”, the stomatal density [1, 5] was “increased” and the “stomatal density, concentration dependence” value ([1]; recombinant stomagen expressed in BY-2 cells) was “concentration-dependently increase”.
For “stomagen: polypeptide comprising the amino acid sequence shown in SEQ ID NO: 6; 45-amino-acid peptide having six cysteine residues (IGSTAPTCTYNECRGCRYKCRAEQVPVEGNDPINSAYHYRCVCHR; listed as Arabidopsis thaliana)”, the stomata (spch mutant) was “do not increase”, the “relationship between stomagen concentration and stomatal density” value (soybean (Kariyutaka)) was “positive correlation” and the “stability to heat and drying (stomatal density after treatment)” value [2] was “stable to heat and drying”.
“synthetic stomagen: chemically synthesized polypeptide (45 amino acids) comprising 58th to 102nd amino acid residues of SEQ ID NO: 1, refolded by dialysis (IGSTAPTCTYNECRGCRYKCRAEQVPVEGNDPINSAYHYRCVCHR; also: refolded by dialysis, disulfide pairing not given here; listed as Arabidopsis thaliana)” was tested, and the stomatal density ([3]; 300 nM at 2 days after germination, grown 3 days at 22° C., abaxial epidermis of cotyledon, vs not administered) was “increases”, the “stomatal density, concentration dependence” value ([3]; chemically synthesized stomagen) was “concentration-dependently increase” and the number of stomata [4] was “increase”. For the same substance, the stomatal density [4] was “increase”.
